According to patent US10233151B2, “Use of a novel 3-aryl-4-catechol-pyrrole-N-propanol compound and the derivatives thereof to treat cancer and diseases related to excessive angiogenesis” (Centre National de la Recherche Scientifique (CNRS), priority 2014, dated 2019):

Columns and labels:
[1] = EPR at 77 K, disappearance of the O2°- signal; conditions: KO2 2.5 mM in DMSO, dependent on concentration
Experimental: In order to follow the direct interaction of compound (1) with superoxide anion, solid potassium superoxide (KO2) was dissolved by sonication in DMSO (final concentration 2.5 mM), then mixed with compound (1) and immediately cooled by immersion in liquid nitrogen. EPR analysis at 77 K (liquid nitrogen) was carried out with a MiniScope MS 100 EPR spectrometer, operating at a frequency of 9.5 GHz (X-band) with the following parameters: magnetic field: 336.0±49.8 mT; sweep time: 20 s; sampling: 4096 points; modulation amplitude: 0.10 mT; modulation frequency: 100 kHz; gain: 900; microwave power: 6 mW.

HCT-116 cells [2] = assay: VEGF secretion by ELISA, HCT-116 culture supernatant; format: cell-based; conditions: HCT-116, normoxic and hypoxic (2% O2) conditions, concentrations of 5 to 50, 24 hours
Experimental: At the tenth day of embryonic development, glioblastoma cells (U87, 5×10^6 in 20 μL) were deposited on the chorioallantoic membrane. Two days after the graft, compound (1) at a concentration of 50 μM in a volume of 20 μL was deposited on the surface of the tumor formed. This treatment was repeated every 24 hours for 5 days. The control group was treated with solvent. The test was carried out on 20 eggs bearing glioblastoma tumors for each group. Images of the tumors were taken at day 3 (24 hours after treatment), at day 5 (3 days after treatment) and at day 7 (5 days after treatment) of tumor development. […] In order to determine the antiangiogenic mechanism of compound (1), VEGF was assayed by the ELISA method (Invitrogen, Novex technology), from the culture supernatant of U87 and HCT-116 cells, under normoxic and hypoxic conditions.

[3] = test system: endothelial cells (HUVEC); assay: Survival of endothelial cells in proliferative or quiescent phase; format: cell-based, human; conditions: 48 hours
Experimental: In order to understand the difference in the observed effects of compound (1) according to whether the vasculature is already formed or is growing “de novo”, vascular endothelial cells were cultured at two different cell densities so as to obtain proliferative phase cells or quiescent cells, then treated or not by compound (1), at 10 μM (IC50 value: 8 μM) for 48 hours. […] Compound (1) may thus be used to treat diseases associated with excessive and abnormal angiogenesis, like cancer or ARMD.

U87 cells = assay: Cell growth test (CellTiter-Blue), U87; format: cell-based; conditions: Homo sapiens, U-87 MG; U87, normoxia, 72 hours; read-out: IC50 (50% decrease in cell growth)
Experimental: (§1) The biological activity of compound (1), as well as that of its structural analogues, was studied in vitro on 7 different cancer cell lines: • HCT-116 (colorectal cancer) • U87 (glioblastoma) • K562 (myeloid leukemia) and K562 R • MDA-MB 231 (mammary adenocarcinoma) • MCF-7 (mammary adenocarcinoma) • A549 (pulmonary alveolar adenocarcinoma)
(§2) The cells selected for this study were incubated at 37° C. in the presence of compound (1) added in the culture medium at various concentrations and at various times. The set of experiments carried out made it possible to determine the degree of cytotoxicity of the compound tested (IC50), its capacity to induce cell death by apoptosis, in close dependence on extracellular superoxide anion for its activation.
(§3) The effect of compound (1) on the growth of HCT-116, U87, K562, K562R, MDA-MB 231, MCF-7 and A549 cells, cultured in normoxia, was evaluated using a cell growth test (CellTiter-Blue™ Cell Viability Assay, Promega).

K562R cells = assay: Cell growth test (CellTiter-Blue), K562R; format: cell-based; conditions: Homo sapiens, K-562R, normoxia, 72 hours, read-out: IC50 (50% decrease in cell growth)
Experimental: as §1, §2, §3

[4] = test system: caspases 3 and 7 in U87 cells; assay: Caspase 3 and 7 activity (ApoONE test), U87; format: cell-based, human; conditions: U87, normoxia, 24 hours, 1 μM to 50 μM
Experimental: In order to specify whether compound (1) leads to apoptotic cell death, the activity of caspases 3 and 7, marker enzymes of apoptosis, was measured using the ApoONE test (Promega) in HCT-116, U87 and HL60 cells treated in normoxia for 24 hours with compound (1) at concentrations varying from 1 μM to 50 μM.

HCT-116 cells [5] = assay: Cellular superoxide anion signal, DHE probe, HPLC-fluorimetry; format: cell-based; conditions: HCT-116, 50 μM for 3 hours, DHE 10 μM 20 minutes, normoxia
Experimental: The effect of compound (1) on superoxide anion was studied following the treatment of HCT-116 cells with 50 μM compound (1) for 3 hours and followed by incubation with the probe dihydroethidium (DHE) (10 μM) for 20 minutes. After removing the culture medium and washing with ice-cold DPBS, the cells were collected in 1 ml of cold DPBS. After centrifugation at 1000 g for 5 minutes, the pellet was taken up in 150 μl of PBS with Triton X100 (0.1%), shaken and centrifuged at 1000 g for 5 minutes. The supernatant was mixed with a 0.2 M solution of HClO4 in methanol, shaken and placed on ice for 2 hours. After centrifugation at 20000 g for 30 minutes, the supernatant is analyzed by HPLC coupled with fluorescence (λex=510 nm, λcm=595 nm). In the untreated cells (continuous line), the first peak at tR=5.16 minutes corresponds to the oxidized form “E+”, product of oxidation by peroxidases, and the second peak at tR =5.71 minutes to the oxidized form 2-OH E+, specific to the interaction with superoxide anion. In the treated cells, the first peak at tR=5.29 minutes corresponding to the oxidized form “E+” is increased, whereas the second peak at tR=5.71 minutes, corresponding to the oxidized form 2OH E+, specific to the interaction with superoxide anion, was suppressed. […] (FIG. 10).

HCT-116 cells [6] = assay: Condensed chromatin (Hoechst 33258) after SOD pretreatment; format: cell-based; conditions: HCT-116, SOD1 50 U/ml pretreatment, normoxia
Experimental: In order to determine the role of superoxide anion, produced by the cells, in the activation of compound (1), HCT-116 cells were pretreated for 1 hour with the enzyme superoxide dismutase (SOD1) at 50 U/ml, then treated with compound (1). The cells were analyzed to evaluate, firstly, cell survival in normoxia (72 hours of treatment) and in hypoxia (48 hours of treatment). Secondly, the formation of condensed chromatin in normoxia and the activity of caspases 3 and 7 in normoxia were evaluated.

OCCCn1cc(-c2ccccc2)c(-c2ccc(O)c(O)c2)c1 [compound (1)]
EPR signal of superoxide anion [1]: decrease in the EPR signal of superoxide anion | VEGF secretion (HCT-116 cells [2]): does not modify VEGF secretion | effect on quiescent endothelial cells ([3]; 10 μM, quiescent cells): acts only on endothelial cells in the proliferative phase | inhibition at 10 µM ([3]; Homo sapiens, HUVEC, 10 μM, proliferative phase): 78% | IC50 ([3]; Homo sapiens, HUVEC, read-out: IC50 value, vascular endothelial cells): 8 µM | IC50 (U87 cells): 7 µM | IC50 (K562R cells): 12.5 µM | activity of caspases 3 and 7 [4]: significant activation of both caspases | 2-OH E+ signal (DHE oxidized by superoxide anion) (HCT-116 cells [5]): inhibition of the 2OH E+ signal | E+ signal (DHE oxidized by peroxidases or catalase) (HCT-116 cells [5]): increase in the E+ signal | increase in condensed chromatin after SOD pretreatment (HCT-116 cells [6]): completely suppresses the increase in condensed chromatin
